Data as given in US6924100B2, “Gene alteration in the gene for the Gβ3-subunit of the human G protein” (priority 1998, dated 2005).

What was measured:
coronary vessels = test: Coronary blood flow change after intracoronary BHT 933; assay type: in vivo, human; details: carriers of the GNB3-825T allele, with or without CHD, FIG. 8
Description: An alpha2 adrenergic agonist (BHT 933) was applied intracoronary in the probands; it leads to contraction of coronary vessels. This effect was quantified via the flow change through these sections of the vessels. […] This means that in carriers of the GNB3-825T allele the intensification of the action of these pharmaceuticals can be predicted.

[1] = target: T1, m2-muscarinergic receptor (Homo sapiens, UniProt P08172); test: G protein stimulation by carbachol in Sf9 cells expressing m2-muscarinergic receptor, Galphai3, Ggamma5 and Gβ3 or Gβ3s; assay type: cell-based; details: in the presence of Gβ3 (so in the source), FIG. 2
T1 sequence (P08172 1-466): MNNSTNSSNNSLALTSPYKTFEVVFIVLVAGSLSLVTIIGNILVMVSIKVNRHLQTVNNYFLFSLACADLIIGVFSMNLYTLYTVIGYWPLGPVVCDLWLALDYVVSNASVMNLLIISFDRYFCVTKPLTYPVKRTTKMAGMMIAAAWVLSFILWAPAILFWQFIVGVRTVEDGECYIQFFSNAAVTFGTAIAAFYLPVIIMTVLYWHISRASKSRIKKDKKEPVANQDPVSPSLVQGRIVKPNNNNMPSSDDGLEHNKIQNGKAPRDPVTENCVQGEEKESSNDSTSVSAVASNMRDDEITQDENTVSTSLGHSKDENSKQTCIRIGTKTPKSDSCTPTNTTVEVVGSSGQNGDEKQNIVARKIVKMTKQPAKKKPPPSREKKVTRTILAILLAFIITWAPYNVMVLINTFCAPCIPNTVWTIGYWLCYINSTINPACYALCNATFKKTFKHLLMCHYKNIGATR
Description: Here the m2-muscarinergic receptor is expressed together with the G protein subunits Galphai3 and Ggamma5 and either Gβ3 or Gbeta3-s in the Sf9 system.

[2] = system: beta-adrenergic receptors; test: Cardiac output after intravenous beta-adrenoceptor blocker; assay type: in vivo, human; details: average
[3] = system: males with penile dysfunction; test: Erection score and arterial blood flow after prostaglandin E1 injection into the corpus cavernosum; assay type: in vivo, human; details: for males with insufficient or absent erection / males with sufficient erection (scores 4 and 5): 10 micrograms, of 87 males
Procedure: When erectile dysfunction is present, prostaglandin E1 is injected into the corpus cavemosum for diagnostic clarification, but also possibly to begin long-term therapy. Prostaglandin E1 activates adenylcyclase, and the subsequent formation of cAMP relaxes smooth vascular muscle cells and thus induces an increased arterial blood flow and thus erection of the penis. The degree of the erection which occurs can be quantified via a point system (score 0-5). Here the scores 4 and 5 correspond to an erection which is sufficient for penetration, while scores<4 can be considered as insufficient.
In 87 males with penile dysfunction, 10 micrograms of prostaglandin E1 were administered with quantification of the erection score. Here the genotype distribution was as follows: Sufficient erection (scores 4 and 5): TT=3; TC=15; CC=16; (frequency of GNB3 825T allele: 30.9%). Insufficient or absent erection: TT=3; TC=16; CC=34; (frequency of the GNB3 825T allele: 20.8%).

[4] = system: neutrophilic granulocytes; test: fMLP-stimulated chemotaxis of neutrophilic granulocytes; assay type: cell-based, human; details: granulocytes of carriers of the GNB3-825T allele, FIG. 5
Description: It is therefore used as a test system for measurement of chemotactic reactions of cells which is well known to one skilled in the art. The fMLP receptor, as is known, activates the pertussis toxin-sensitive G proteins. The statement that granulocytes of carriers of the GNB3-825T allele show intensified fMLP-stimulated chemotaxis is in agreement with the fact that chemotaxis of betagamma subunits is mediated.

[5] = system: phospholipase Cβ3 (PLCbeta3); test: Inositol phosphate formation in COS-7 cells transfected with PLCβ3, Ggamma12 and Gβ subunits; assay type: cell-based; details: betagamma dimers with Ggamma12, FIG. 16
Description: It is generally known that betagamma subunits of heterotrimeric G proteins can stimulate different isoforms of the phospholipase Cbeta. This enzyme splits phospholipids, for example phosphatdylinositol-4,5-bisphosphate into the “second messenger” molecules inositol-1,4,5 triphosphate (IP3) and 1,2-diacylglycerol (DAG), IP3 causes release of calcium ions from intracellular reservoirs, while DAG activates different isoforms of the protein kinase C. Activation of phospholipase C is thus an important step in cell activation. It was examined whether betagamma subunits which contain Gβ3s-2 can activate the phospholipase Cβ3 (PLCbeta3). To do this the COS-7 cell system was used which is often used in the generally accessible literature for transient transfection of proteins. These cells were transfected with the PLCβ3, Ggamma12 and different Gβ subunits. The cells were pretreated with radioactively tagged [3H] inositol. The formation of inositol phosphates (IP) was quantified using standard methods, the amount of the 1P formed constituting a measure of the activation of the PLC. As is shown in FIG. 16, betagamma dimers which contain Gβ3, Gβ3s, or Gβ3s-2 can activate PLCβ33. Likewise, activation of PLCβ3 after transfection of Gβ1 is shown for comparison.

G protein alpha subunits = test: 35S-GTPgammaS binding to permeabilized Sf9 cells (Galphai2, Ggamma12, m2 receptor) after carbachol; assay type: cell-based, human; details: carbachol 100 microM, versus no beta subunit, FIG. 15
Description: First of all, it was studied whether G protein heterotrimers which contain Gβ3s-2 are functionally active. As described earlier, the Sf9 insect cell system was used for this purpose (Siffert, W., Rosskopf, D., Siffert, G., Busch, S., Moritz, A., Erbel, R., Sharma, A. M., Ritz, E.; Wichmann, H. E., Jakobs, K. H., and Horsthemke, B. Association of a human G protein β3 subunit variant with hypertension. Nat. Genet. 18(1): 45-48, 1998). The cells were transfected with Galphai2, Ggamma12 and the m2-muscarinergic acetylcholine receptor. The bonding of 35S-GTPgammaS to permeabilized cells was quantified after stimulation with carbachol (100 microM). Here the specific incorporation of 35S-GTPgammaS is a measure of the activation of G protein alpha subunits. […] Thus it is shown at the same time that Gβ3s-2 in spite of the deletion of one propeller blade is functionally active and even leads to intensified activation of G proteins. […] Galphai2, Galphai3, G-1, and G-2 are not mutated. Circ. Res. 79:974-983, 1996. Siffert, W., Rosskopf, D., Moritz, A., Wieland, T., Kaldenberg-Stasch, S., Kettler, N., Hartung, K., Bechmann, S., and Jakobs, K. H. Enhanced G protein activation in immortalized lymphoblasts from patients with essential hypertension. J. Clin. Invest. 96:759-766, 1995. Wirchow, S., Ansorge, N., Ruebben, H., Wiffert, G., and Siffert, W. Enhanced fMLP-stimulated chemotaxis in human neutrophils from individuals carrying out the G protein beta3 subunit 825T-allele. FEBS Lett. 436(2): 155-158, 1998).

G protein alpha-subunits = test: [35S]GTPgammaS incorporation after Mas-7 stimulation, COS-7 transfection system; assay type: cell-based, human; details: COS-7 cells, FIG. 1
Description: The subject matter of this invention is based on the finding that the Gβ3s subunit leads to increased activation capacity of G proteins. The increased activation capacity of G proteins was detected via transfection of the corresponding cDNAs and the expression of Gβ3 and Gβ3s in the COS-7 transfection system which is well known to one skilled in the art. […] To quantify the activation capacity of G proteins, here the incorporation of radioactively tagged [35S]GTPgammaS into G protein alpha-subunits after stimulation with the peptide mastoparan-7 (Mas-7) was measured.

## CCN1CCc2nc(N)oc2CC1 [BHT 933]
Coronary vessels
  reduction of coronary blood flow: intensified reduction of coronary blood flow

## C[N+](C)(C)CCOC(N)=O [carbachol]
[1]
  potency and efficiency of the agonist for stimulation of G proteins: increased potency and increased efficiency

## CC(C)NCC(O)COc1cccc2ccccc12 (stereo not shown) [propanolol]
[2]; homozygotic C825 carriers
  decrease of cardiac output: 3 mL
[2]; homozygotic and heterozygotic 828T (so in the source) allele carriers
  decrease of cardiac output: 12 mL

## CCCCC[C@H](O)/C=C/[C@H]1[C@H](O)CC(=O)[C@@H]1CCCCCCC(=O)O [prostaglandin E1]
[3]; genotype CC
  males with insufficient or absent erection: 34
  males with sufficient erection (scores 4 and 5): 16
[3]; genotype TC
  males with insufficient or absent erection: 16
  males with sufficient erection (scores 4 and 5): 15
[3]; genotype TT
  males with insufficient or absent erection: 3
  males with sufficient erection (scores 4 and 5): 3
[3]; after injection, homozygotic C825 allele carriers
  increase of the arterial blood flow (doppler sonography): reduced increase of the arterial blood flow

## fMLP
[4]
  chemotaxis: increased chemotaxis

B1: Gβ3s: alternative splice product of human GNB3 with loss of 41 amino acids (protein, listed as Homo sapiens)
chain: MGEMEQLRQEAEQLKKQIADARKACADVTLAELVSGLEVVGRVQMRTRRTLRGHLAKIYAMHWATDSKLLVSASQDGKLIVWDSYTTNKVHAIPLRSSWVMTCAYAPSGNFVACGGLDNMCSIYNLKSREGNVKVSRELSAHTGYLSCCRFLDDNNIVTSSGDTTCALWDIETGQQKTVFVGHTGDCMSLAVSPDFNLFISGACDASAKLWDVREGTCRQTFTGQESDINAICFFSLSGRLLFAGYDDFNCNVWDSMKSERVGILSGHDNRVSCLGVTADGMAVATGSWDSFLKIWN
[5]
  activation of PLCβ3 (inositol phosphate formation): can activate
G protein alpha subunits
  G protein activation (specific 35S-GTPgammaS incorporation): more potent than Gβ3
G protein alpha-subunits
  activation capacity of G proteins ([35S]GTPgammaS incorporation): clearly increased compared to Gβ3

B2: Gβ3s-2: new splice variant of the Gβ3 subunit of human G protein, deletion of 43 amino acids, SEQ ID NO:4 (protein, listed as Homo sapiens)
chain: MGEMEQLRQEAEQLKKQIADARKACADVTLAELVSGLEVVGRVQMRTRRTLRGHLAKIYAMHWATDSKLLVSASQDGKLIVWDSYTTNKVHAIPLRSSWVMTCAYAPSGNFVACGGLDNMCSIYNLKSREGNVKVSRELSAHTGYLSCCRFLDDNNIVTSSGDTTCALWDIETGQQKTVFVGHTGDCMSLAVSPDFNLFISGACDASAKLWDVREGTCRQTFTGQESDINAICFFSLSGRLLFAGYDDFNCNVWDSMKSERVGILSGHDNRVSCLGVTADGMAVATGSWDSFLKIWN
[5]
  activation of PLCβ3 (inositol phosphate formation): can activate
G protein alpha subunits
  G protein activation (specific 35S-GTPgammaS incorporation): strongest potentiation

B3: Gβ3: Gβ3-subunit of the human G protein (protein, UniProt P16520 1-340, looked up)
Guanine nucleotide-binding …: MGEMEQLRQEAEQLKKQIADARKACADVTLAELVSGLEVVGRVQMRTRRTLRGHLAKIYAMHWATDSKLLVSASQDGKLIVWDSYTTNKVHAIPLRSSWVMTCAYAPSGNFVACGGLDNMCSIYNLKSREGNVKVSRELSAHTGYLSCCRFLDDNNIVTSSGDTTCALWDIETGQQKTVFVGHTGDCMSLAVSPDFNLFISGACDASAKLWDVREGTCRQTFTGHESDINAICFFPNGEAICTGSDDASCRLFDLRADQELICFSHESIICGITSVAFSLSGRLLFAGYDDFNCNVWDSMKSERVGILSGHDNRVSCLGVTADGMAVATGSWDSFLKIWN
[5]
  activation of PLCβ3 (inositol phosphate formation): can activate
G protein alpha subunits
  G protein activation (specific 35S-GTPgammaS incorporation): clearly intensified
